Where two headings read alike, the source gives them in different places.
System: iCell cardiomyocytes (human iPSC-derived cardiomyocytes)
Test: Intracellular Ca2+ flux / beating parameters in iCell cardiomyocytes (FLIPR tetra), 90 min or 24 h
Assay type: cell-based
Details: Homo sapiens, Cardiomyocyte, 0.00 µM = 100.00; for activity at 0.1 µM: 0.10 µM
Experimental: Details on cardiomyocyte cell culture are described in detail elsewhere ([Grimm et al. 2015b]; [Sirenko et al. 2013a]). Briefly, tissue-culture treated 384 well plates were gelatinized with 25μL per well of 0.1% (w/v) gelatin in water for 2 h at 37°C and 5% CO2 . Individual vials of cells were thawed for 4 min in a water bath maintained at 37°C. Thawed cells were resuspended in 10ml plating medium containing 1:500 (vol/vol) penicillin/streptomycin solution at room temperature (RT). Live cell counts for each cell suspension were determined by trypan blue staining and cells were further diluted to provide final cell densities of 2×10^5 viable cells/ml. Thus, 5,000 cells suspended in 25μL media were transferred per well after the gelatin solution had been discarded. Cell culture plates were rested for 30 min at RT before they were incubated for 48 h at 37°C and 5% CO2 . Then, a media exchange with 30μL of fresh maintenance medium containing 1:500 (vol/vol) penicillin/streptomycin solution was performed, and cell media were subsequently changed every 48 h for 12 d. On the experiment day, the medium was completely exchanged with either 25μL (for Ca^2+ flux assay) or 40μL (for imaging) of fresh medium.
Responses of iCell®-cardiomyocytes to drugs and chemicals were evaluated using intracellular Ca^2+ flux measurements ([Grimm et al. 2015b]; [Sirenko et al. 2013b]). For experiments, 20 mM stock solutions of PCBs and PCB metabolites were prepared in DMSO ( 200× ). Chemical working solutions ( 5× ) were prepared using cardiomyocyte maintenance medium and contained 2.5% (vol/vol) DMSO. These chemical master plates were prepared to include all chemicals in concentration–response (0.05, 0.5, 5, 50, and 500μM ). Negative controls included media-only and vehicle control (i.e., 0.5% vol/vol DMSO in cell culture media) wells. Positive assay controls were consistent with previously published reports ([Grimm et al. 2018]) and included TAB ( 50μM ) as a cytotoxic control, and isoproterenol ( 0.1–10μM ), propranolol ( 0.1–5 μM ), cisapride ( 0.01–1μM ), and doxorubicin ( 0.1–5μM ) as chemicals associated with specific effects on beating and ion flux. Each test chemical was screened in triplicate for each concentration.
Experiments started with the addition of 25μL of prewarmed 2× concentrated calcium dye reagent to sample wells containing 25μL maintenance media. Microplates were then acclimated for 2 h at 37°C. Following equilibration, cardiomyocyte sample wells were treated simultaneously by the addition of 12.5μL of prewarmed 5× chemical solution to iCell®-cardiomyocytes using the automated liquid handler in the FLIPR tetra (Molecular Devices). Treated cell cultures were incubated for either 90 min or 24 h. After the conclusion of the treatment period, the Ca^2+ flux was measured for 100 s at a frequency of 8 Hz using the integrated fluorescence plate reader in the FLIPR tetra (Molecular Devices) using an emission wavelength range of λemission=515–575 nm ( λexcitation=470–495 nm ). Additional instrument settings included exposure time per read of 0.05s, a gain of 2000, an excitation intensity of 30%, and an internal temperature of 37°C.
Ca^2+ flux data were processed in R studio (version 1.0.136, with R version 3.3.2; R Development Core Team) as described elsewhere ([Blanchette et al. 2019]; [Burnett et al. 2019]). Calculated quantitative metrics included the means and coefficients of variation (CV) of the peak height, which can be indicative of cytotoxicity, inhibition, or stimulation of beating. Means of peak frequency, an indicator of positive or negative […], and CV of peak spacing, an indicator of irregular beating, were also derived from Ca^2+ flux traces. Finally, the mean ratio of the decay over rise time was calculated. Increases in the decay/rise time ratio are reflective of delayed repolarization and are a measure for QT prolongation. […]

[1] = 1.5 h, read-out: cm.amp.avg.90min
[2] = 1.5 h, read-out: cm.amp.cv.90min
[3] = 1.5 h, read-out: cm.decay.rise.90min
[4] = 1.5 h, read-out: cm.spacing.cv.90min
[5] = 24 h, read-out: cm.amp.avg.24hrs
[6] = 24 h, read-out: cm.amp.cv.24hrs
[7] = 24 h, read-out: cm.decay.rise.24hrs
[8] = 24 h, read-out: cm.spacing.cv.24hrs

## Oc1ccc(O)c(-c2ccc(Cl)cc2)c1 [2',5'-DiOH PCB3]
[1]
  activity at 0.01 µM: 102%
  activity at 0.1 µM: 105%
  activity at 1 µM: 106%
  activity at 10 µM: 110%
  activity at 100 µM: 9.07%
[2]
  activity at 0.01 µM: 90%
  activity at 0.1 µM: 110%
  activity at 1 µM: 93.3%
  activity at 10 µM: 112%
  activity at 100 µM: 380%
1.5 h, read-out: cm.bpm.90min
  activity at 0.01 µM: 99.1%
  activity at 0.1 µM: 100%
  activity at 1 µM: 92.8%
  activity at 10 µM: 104%
  activity at 100 µM: 7.52%
[3]
  activity at 0.01 µM: 97.4%
  activity at 0.1 µM: 95.6%
  activity at 1 µM: 98.3%
  activity at 10 µM: 105%
  activity at 100 µM: 21.5%
[4]
  activity at 0.01 µM: 113%
  activity at 0.1 µM: 94%
  activity at 1 µM: 107%
  activity at 10 µM: 132%
  activity at 100 µM: 381%
[5]
  activity at 0.01 µM: 161%
  activity at 0.1 µM: 147%
  activity at 1 µM: 141%
  activity at 10 µM: 0%
  activity at 100 µM: 0%
[6]
  activity at 0.01 µM: 75.5%
  activity at 0.1 µM: 75%
  activity at 1 µM: 69.9%
  activity at 10 µM: 0%
  activity at 100 µM: 0%
24 h, read-out: cm.bpm.24hrs
  activity at 0.01 µM: 105%
  activity at 0.1 µM: 100%
  activity at 1 µM: 92.6%
  activity at 10 µM: 0%
  activity at 100 µM: 0%
[7]
  activity at 0.01 µM: 98.5%
  activity at 0.1 µM: 101%
  activity at 1 µM: 109%
  activity at 10 µM: 0%
  activity at 100 µM: 0%
[8]
  activity at 0.01 µM: 110%
  activity at 0.1 µM: 93.3%
  activity at 1 µM: 89%
  activity at 10 µM: 0%
  activity at 100 µM: 0%

## Clc1ccc(-c2ccccc2)cc1 [PCB3]
[1]
  activity at 0.01 µM: 98.5%
  activity at 0.1 µM: 104%
  activity at 1 µM: 99.9%
  activity at 10 µM: 99.5%
  activity at 100 µM: 81.2%
[2]
  activity at 0.01 µM: 109%
  activity at 0.1 µM: 102%
  activity at 1 µM: 123%
  activity at 10 µM: 115%
  activity at 100 µM: 180%
1.5 h, read-out: cm.bpm.90min
  activity at 0.01 µM: 95.3%
  activity at 0.1 µM: 96.5%
  activity at 1 µM: 96.5%
  activity at 10 µM: 103%
  activity at 100 µM: 193%
[3]
  activity at 0.01 µM: 98.9%
  activity at 0.1 µM: 99.5%
  activity at 1 µM: 96.1%
  activity at 10 µM: 98.8%
  activity at 100 µM: 99.9%
[4]
  activity at 0.01 µM: 124%
  activity at 0.1 µM: 116%
  activity at 1 µM: 130%
  activity at 10 µM: 121%
  activity at 100 µM: 133%
[5]
  activity at 0.01 µM: 91.3%
  activity at 0.1 µM: 87.1%
  activity at 1 µM: 87.1%
  activity at 10 µM: 110%
  activity at 100 µM: 0%
[6]
  activity at 0.01 µM: 119%
  activity at 0.1 µM: 41.5%
  activity at 1 µM: 146%
  activity at 10 µM: 106%
  activity at 100 µM: 0%
24 h, read-out: cm.bpm.24hrs
  activity at 0.01 µM: 103%
  activity at 0.1 µM: 52.5%
  activity at 1 µM: 103%
  activity at 10 µM: 110%
  activity at 100 µM: 0%
[7]
  activity at 0.01 µM: 98.3%
  activity at 0.1 µM: 47.1%
  activity at 1 µM: 104%
  activity at 10 µM: 98.5%
  activity at 100 µM: 0%
[8]
  activity at 0.01 µM: 138%
  activity at 0.1 µM: 61.2%
  activity at 1 µM: 118%
  activity at 10 µM: 128%
  activity at 100 µM: 0%

Source: paper PMC7377239, “Cardiovascular Effects of Polychlorinated Biphenyls and Their Major Metabolites” (Environmental Health Perspectives, 2020)
